This is an account of results in ChEMBL document CHEMBL1667813, “Difluoroethylamines as an amide isostere in inhibitors of cathepsin K” (Bioorg Med Chem Lett, 2011).

Data set [1] is filed under the species Homo sapiens. Briefly: Selectivity ratio of IC50 for human cathepsin F to IC50 for human cathepsin K.
For data set [2], the species on record is Homo sapiens. The experiment in a line: Selectivity ratio of IC50 for human cathepsin S to IC50 for human cathepsin K.
Data set [3] is filed under the species Homo sapiens. Briefly: Selectivity ratio of IC50 for human cathepsin L to IC50 for human cathepsin K.
A short description of data set [4]: Ratio of product of IC50 for rabbit bone resorption and IC50 for humanized rabbit cathepsin K to IC50 for rabbit cathepsin K.
Another data set addresses Cathepsin K (Homo sapiens, UniProt P43235). Briefly: Inhibition of humanized rabbit cathepsin K.
Data set [5] is filed under the species Homo sapiens. Briefly: Selectivity ratio of IC50 for human cathepsin B to IC50 for human cathepsin K.
Data set [6] is described as follows: Oral bioavailability in rat at 2 mg/kg, iv. In kind it is ADME, organism-based. As to conditions: in vivo.
Data set [7] is described as follows: Lipophilicity, log D of the compound. In kind it is physicochemical. As to conditions: octanol/water.
Data set [8] is described as follows: Aqueous equilibrium solubility of the compound in water. In kind it is physicochemical.
Data set [9] is described as follows: Dissociation constant, pKa of the compound. In kind it is physicochemical.
Data set [10] can be described thus: Half life in rat at 10 mg/kg, po or 2 mg/kg, iv. In kind it is ADME, organism-based. Particulars: in vivo.
A short description of data set [11]: Oral bioavailability in dog at 1 mg/kg, iv. In kind it is ADME, organism-based, Canis lupus familiaris. As to conditions: in vivo.
A short description of data set [12]: Half life in dog at 5 mg/kg, po or 1 mg/kg, iv. In kind it is ADME, organism-based, Canis lupus familiaris. As to conditions: in vivo.

As a reminder, the IC50 is the concentration at which inhibition is half-maximal. Take `CC(C)(F)C[C@H](N[C@@H](c1ccc(-c2ccc(C3(C(N)=O)CC3)cc2F)cc1)C(F)(F)F)C(=O)NC1(C#N)CC1`: the Ratio IC50 in the data set filed under Homo sapiens [1] was 1380; in the data set filed under Homo sapiens [2], 1200; in the data set filed under Homo sapiens [3] it was 9370; in the data set listed under Homo sapiens [5] it was 4400. In addition, the IC50 in [4] came to 2 nM; against Cathepsin K, 0.3 nM.

As a reminder, the bioavailability is dose-corrected exposure relative to a reference, in per cent. Low readings indicate little systemic uptake, high ones much systemic uptake. As usually defined, the logD is lipophilicity at a set pH, counting ionised and neutral species. Low readings indicate a more hydrophilic compound, high ones a more lipophilic compound. A word on the thermodynamic solubility: it is the concentration in solution at equilibrium with solid. The term pKa denotes the negative logarithm of the acid dissociation constant. A higher pKa goes with a group that holds its proton tightly. What is called half-life is how long it takes for the measured level to halve. Low readings indicate fast loss, high ones slow loss. `CC(C)C[C@H](N[C@@H](c1ccc(-c2ccc(S(C)(=O)=O)cc2)cc1)C(F)F)C(=O)NC1(C#N)CC1`: the bioavailability in [6] came to 100%. This compound also returned a logD in data set [7] of 0.11. The Ratio IC50 in the data set filed under Homo sapiens [1] was 645; in the data set filed under Homo sapiens [2], 1140; in the data set listed under Homo sapiens [3], 894; in the data set filed under Homo sapiens [5] it was above 11900. This compound displayed a thermodynamic solubility in data set [8] below 10 µg/mL. The pKa in data set [9] was 2.7. Further, the half-life in data set [10] is 0.8 h. For the same compound, the results for the IC50 (in data set [4]; at Cathepsin K) were 10 nM and 0.8 nM, respectively.

As for `CC(C)(F)C[C@H](N[C@@H](c1ccc(-c2ccc(S(C)(=O)=O)cc2)cc1)C(F)F)C(=O)NC1(C#N)CC1`, the bioavailability turned out to be 22% in data set [6] and 23% in [11]. Further, the Ratio IC50 in the data set listed under Homo sapiens [1] came out at 1920; in the data set filed under Homo sapiens [2], 210; in the data set filed under Homo sapiens [3] it was 6330; in the data set filed under Homo sapiens [5], 2300. The results for the half-life in [12] and in data set [10] were 35 h and 3.8 h, respectively. The IC50 in [4] amounted to 9 nM; against Cathepsin K, 1 nM.

Consider `CC(C)C[C@H](N[C@@H](c1ccc(-c2ccc(S(C)(=O)=O)cc2)cc1)C(F)F)C(=O)NCC#N`, for which the Ratio IC50 in the data set listed under Homo sapiens [1] was 822; in the data set filed under Homo sapiens [2], 2000; in the data set filed under Homo sapiens [3], 869; in the data set filed under Homo sapiens [5], above 32600. Also, the half-inhibitory concentration (IC50) in [4] came out at 15 nM; against Cathepsin K, 0.3 nM.

With `CC(C)C[C@H](N[C@@H](c1ccc(-c2ccc(S(C)(=O)=O)cc2)cc1)C(F)(F)F)C(=O)NC1(C#N)CC1`, the bioavailability in data set [6] is 4%. In data set [7], the logD was 3.53. The Ratio IC50 in the data set filed under Homo sapiens [1] came to 370; in the data set listed under Homo sapiens [2], 809; in the data set listed under Homo sapiens [3], 1390; in the data set listed under Homo sapiens [5] it was 23600. This compound also yielded a solubility (thermodynamic) in data set [8] below 10 µg/mL. The compound also came in with a pKa in data set [9] below 2. Moreover, the half-life in data set [10] is 2.6 h. The IC50 in [4] came out at 3 nM; against Cathepsin K it was 0.3 nM.

With `CC(C)(F)C[C@H](N[C@@H](c1ccc(-c2ccc(S(C)(=O)=O)cc2)cc1)C(F)(F)F)C(=O)NC1(C#N)CC1` [ODANACATIB], the bioavailability in data set [6] was determined as 8%; in data set [11], 6%. The Ratio IC50 in the data set listed under Homo sapiens [1] came to 3980; in the data set listed under Homo sapiens [2], 300; in the data set listed under Homo sapiens [3], 15000; in the data set filed under Homo sapiens [5], 5170. The IC50 in data set [4] amounted to 5 nM; against Cathepsin K it was 0.2 nM.

On to `CC(C)C[C@H](N[C@@H](c1ccc(-c2ccc(C(O)C(F)(F)F)cc2)cc1)C(F)F)C(=O)NC1(C#N)CC1` (stereo not given in full), for which the Ratio IC50 in the data set filed under Homo sapiens [1] is 126; in the data set listed under Homo sapiens [2], 813; in the data set listed under Homo sapiens [3] it was 785; in the data set filed under Homo sapiens [5], above 5180. The IC50 in data set [4] is 32 nM; against Cathepsin K it was 1.9 nM.

Regarding `CC(C)C[C@H](N[C@@H](c1ccc(-c2ccc(S(C)(=O)=O)cc2)cc1)C(F)(F)F)C(=O)NCC#N`, the Ratio IC50 in the data set listed under Homo sapiens [1] came out at 480; in the data set filed under Homo sapiens [2], 890; in the data set listed under Homo sapiens [3], 1320; in the data set listed under Homo sapiens [5] it was 26200. Moreover, the values for the IC50 (in [4]; at Cathepsin K) were 3 nM and 0.2 nM, respectively.

On to `CC(C)C[C@H](N[C@@H](c1ccc(-c2ccc(C(O)C(F)(F)F)cc2)cc1)C(F)(F)F)C(=O)NC1(C#N)CC1` (stereo not given in full), for which the Ratio IC50 in the data set filed under Homo sapiens [2] was determined as 311; in the data set listed under Homo sapiens [3], 506; in the data set filed under Homo sapiens [5], 5980. The results for the IC50 (in [4]; against Cathepsin K) were 21 nM and 1.6 nM, respectively.

Consider `CC(C)(F)C[C@H](N[C@@H](c1ccc(-c2ccc(C3(C(N)=O)CC3)cc2F)cc1)C(F)F)C(=O)NC1(C#N)CC1`, for which the Ratio IC50 in the data set listed under Homo sapiens [1] was found to be 2340; in the data set filed under Homo sapiens [2], 2880; in the data set filed under Homo sapiens [3] it was 12700; in the data set listed under Homo sapiens [5] it was 7230. The figures for the IC50 (in data set [4]; at Cathepsin K) were 4 nM and 0.3 nM, respectively.
